In patent EP1900728A1 (Genecare Research Institute Co., Ltd, priority 2005, dated 2006):
Where two headings read alike, the source gives them in different places.

Key:
[1] = target: T1, IκBα ubiquitinating enzyme (SCF complex: ROC1, Cullin1, Skp1, His-TrCP1; with E1, UbcH5b) (Homo sapiens, UniProt P62877+P63208+Q13616+Q9Y297); assay: Measurement of ubiquitinating enzyme activity (IκBα ubiquitination, time-resolved fluorescence with Eu(K)-labeled ubiquitin and XL665-labeled anti-GST antibody); format: biochemical
T1 construct: His (polyhistidine); made in house; host or cells: insect cells (baculovirus) for the SCF complex and His-E1; E. coli for His-UBCH5b
T1 sequence (Q9Y297 whole entry): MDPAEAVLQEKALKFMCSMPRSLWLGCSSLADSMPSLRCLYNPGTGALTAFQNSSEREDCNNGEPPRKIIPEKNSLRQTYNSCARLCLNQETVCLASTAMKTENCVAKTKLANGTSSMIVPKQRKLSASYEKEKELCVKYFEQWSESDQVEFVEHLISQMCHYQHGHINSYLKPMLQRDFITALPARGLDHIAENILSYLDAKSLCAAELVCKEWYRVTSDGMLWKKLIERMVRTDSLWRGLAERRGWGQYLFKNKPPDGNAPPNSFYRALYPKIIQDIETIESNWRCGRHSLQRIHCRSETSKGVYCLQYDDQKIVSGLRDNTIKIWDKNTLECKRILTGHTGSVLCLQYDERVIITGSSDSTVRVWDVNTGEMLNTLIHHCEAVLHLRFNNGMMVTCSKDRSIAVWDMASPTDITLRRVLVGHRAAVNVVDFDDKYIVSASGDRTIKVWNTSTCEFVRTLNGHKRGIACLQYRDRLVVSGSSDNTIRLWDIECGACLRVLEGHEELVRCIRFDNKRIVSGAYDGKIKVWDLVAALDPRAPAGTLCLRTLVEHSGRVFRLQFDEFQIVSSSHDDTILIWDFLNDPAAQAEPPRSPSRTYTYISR
T1 sequence (Q13616 whole entry): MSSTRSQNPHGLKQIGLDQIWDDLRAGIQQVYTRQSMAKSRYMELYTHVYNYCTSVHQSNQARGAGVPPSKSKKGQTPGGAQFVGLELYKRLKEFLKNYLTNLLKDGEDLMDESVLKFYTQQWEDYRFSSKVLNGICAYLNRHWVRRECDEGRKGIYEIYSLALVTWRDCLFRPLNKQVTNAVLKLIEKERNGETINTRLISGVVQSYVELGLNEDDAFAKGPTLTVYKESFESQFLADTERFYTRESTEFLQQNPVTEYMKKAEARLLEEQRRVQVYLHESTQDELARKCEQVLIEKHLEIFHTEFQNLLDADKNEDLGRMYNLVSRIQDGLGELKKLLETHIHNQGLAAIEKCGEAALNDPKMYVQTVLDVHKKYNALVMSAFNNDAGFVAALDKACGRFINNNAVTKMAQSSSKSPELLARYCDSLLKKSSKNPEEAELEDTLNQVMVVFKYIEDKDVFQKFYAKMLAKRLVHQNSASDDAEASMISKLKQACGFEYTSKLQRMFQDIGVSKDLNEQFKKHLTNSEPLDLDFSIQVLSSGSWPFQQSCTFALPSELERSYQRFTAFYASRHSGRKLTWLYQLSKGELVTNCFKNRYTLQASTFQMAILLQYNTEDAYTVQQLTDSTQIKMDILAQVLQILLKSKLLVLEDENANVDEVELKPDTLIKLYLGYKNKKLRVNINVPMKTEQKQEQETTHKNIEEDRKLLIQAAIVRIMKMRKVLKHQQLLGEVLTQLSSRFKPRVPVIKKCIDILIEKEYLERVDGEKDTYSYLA
T1 sequence (P63208 whole entry): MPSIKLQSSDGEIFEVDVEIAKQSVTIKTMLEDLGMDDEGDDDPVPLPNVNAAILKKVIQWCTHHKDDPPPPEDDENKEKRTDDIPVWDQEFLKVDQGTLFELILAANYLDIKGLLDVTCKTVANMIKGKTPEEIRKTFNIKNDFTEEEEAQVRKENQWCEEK
T1 sequence (P62877 whole entry): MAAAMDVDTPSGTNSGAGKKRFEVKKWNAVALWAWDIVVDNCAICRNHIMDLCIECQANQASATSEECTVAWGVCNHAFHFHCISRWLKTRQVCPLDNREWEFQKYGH
Outline: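 Human SCF complex with E1 and UbcH5b ubiquitinated GST-IκBα pre-phosphorylated by IKKβ (2 mM ATP, pH 7.4, 1 h, RT), with Eu(K)-ubiquitin, 30 min RT. Stopped with EDTA, XL665 anti-GST added for 2 h; 665/620 nm TR-FRET ratio. % inhibition versus no-compound control and no-SCF blank gave IC50.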

[2] = test system: ICAM-1 expression in HT-29 cells; assay: Measurement of ICAM-1 expressing activity (TNFα-induced ICAM-1 expression, cell ELISA); format: cell-based; settings: Homo sapiens, Table 6, cell activity inhibition test by method (3), read-out: EVALUATION (IC50 class, inhibition of cell activity)
Outline: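 Cell ELISA read-out (anti-ICAM-1, peroxidase secondary, TMBZ, A450) after methanol fixation. Before that, HT-29 cells had 30 min compound exposure at 37°C (final DMSO 0.5%) followed by 4 h with 30 ng/mL human TNFα.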

[3] = enzyme activity inhibition test, method (1), Table 5, read-out: EVALUATION

Compound | IC50 [1, 3] | IC50 [2] | IC50 [1]
CCCCC1=NN(c2cccc(C(=O)O)c2)C(=O)/C1=C\c1ccc(N2CCCC2)cc1 [Compound 479] | 10 to 20 µM | 10 to 20 µM | 
COCC1=NN(c2ccc(C(=O)O)cc2)C(=O)/C1=C\c1nccs1 [Compound 237] | 10 to 20 µM | < 40 µM | 
O=C1/C(=C\c2ccc3ccccc3c2)C(c2ccoc2)=NN1c1ccccc1 [Compound 12] | < 10 µM | < 40 µM | 
O=C(O)c1ccc(N2N=C(c3ccoc3)/C(=C/c3cccc4nccnc34)C2=O)cc1 [Compound 329] | 10 to 20 µM | 10 to 20 µM | 
COc1cc(/C=C2\C(=O)N(c3ccc(C(=O)O)cc3)N=C2c2ccoc2)ccc1O [Compound 244] | < 10 µM | 10 to 20 µM | 
COc1ccccc1C(=O)Nc1ccc(C=C2C(=O)N(c3ccc(S(N)(=O)=O)cc3)N=C2C)cc1 [Compound 228] |  | 10 to 20 µM | < 10 µM
CC1=NN(c2cccc(C(=O)O)c2)C(=O)/C1=C\c1ccc(N2CCN(c3ccc(F)cc3)CC2)cc1 [Compound 449] | < 10 µM | 10 to 20 µM | 
COc1cc(C=C2C(=O)N(c3cccc4ccccc34)N=C2C)ccc1O [Compound 195] |  | 10 to 20 µM | < 10 µM
COC(=O)N1CCN(c2ccc(C=C3C(=O)N(c4ccccc4)N=C3C3CC3)cc2)CC1 [Compound 73] |  | < 40 µM | 10 to 20 µM
COc1cc(/C=C2\C(=O)N(c3ccccc3)N=C2C)ccc1OCC(=O)OC(C)(C)C [Compound 125] | 10 to 20 µM | < 40 µM | 
O=C1/C(=C\c2ccc(CO)o2)C(c2ccoc2)=NN1c1ccccc1 [Compound 16] | < 10 µM | 10 to 20 µM | 
CC1=NN(c2cccc(C(=O)N3CCCC3CO)c2)C(=O)/C1=C\c1ccc2[nH]ccc2c1 (stereo not shown) [Compound 372] | < 10 µM | 10 to 20 µM | 
COc1cc(/C=C2\C(=O)N(Cc3cccc(O)c3)N=C2C)ccc1O [Compound 128] | 10 to 20 µM | < 10 µM | 
COCC1=NN(c2ccc(C(=O)O)cc2)C(=O)/C1=C\c1ccc(N2CCCC2)cc1 [Compound 236] | < 10 µM | 10 to 20 µM | 
O=C(O)c1cccc(N2N=C(c3ccoc3)/C(=C/c3ccc(N4CCCC4)cc3)C2=O)c1 [Compound 478] | 10 to 20 µM | 10 to 20 µM | 
O=C1/C(=C\c2ccc3c(c2)OCCO3)C(C2CC2)=NN1c1ccccc1 [Compound 77] | < 10 µM | < 40 µM | 
CC1=NN(c2ccc(C(=O)O)cc2)C(=O)/C1=C\c1ccc2c(ccn2Cc2c(C)noc2C)c1 [Compound 497] | < 10 µM | 10 to 20 µM | 
